Assay results taken from patent US20040049072A1, “RXR modulators with improved pharmacologic profile” (priority 1999, published 2004).
Entries after “also recorded” stand apart in the source; their conditions may differ. Where two headings read alike, the source gives them in different places.

How the values were obtained:
RXRα = biological target: T1, RXRα (Homo sapiens, UniProt P19793); test: RXRα binding (competition with tritiated LGD1069)
T1 sequence (P19793 1-462): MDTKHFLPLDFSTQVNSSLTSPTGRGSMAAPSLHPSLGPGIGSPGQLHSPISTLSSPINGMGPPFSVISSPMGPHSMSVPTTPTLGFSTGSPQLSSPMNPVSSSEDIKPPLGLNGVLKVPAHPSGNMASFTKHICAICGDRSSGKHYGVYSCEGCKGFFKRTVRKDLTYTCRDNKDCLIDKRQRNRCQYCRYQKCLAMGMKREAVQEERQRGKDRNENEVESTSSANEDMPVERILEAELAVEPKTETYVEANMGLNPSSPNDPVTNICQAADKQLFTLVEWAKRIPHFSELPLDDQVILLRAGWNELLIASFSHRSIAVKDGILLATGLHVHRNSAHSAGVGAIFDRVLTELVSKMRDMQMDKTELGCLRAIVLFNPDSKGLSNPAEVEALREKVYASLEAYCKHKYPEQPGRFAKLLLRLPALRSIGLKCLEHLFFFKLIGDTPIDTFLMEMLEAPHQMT
Experimental: Non-specific binding was defined as that binding remaining in the presence of 500 nM of the appropriate unlabelled compound. At the end of the incubation period, bound ligand was separated from free. The amount of bound tritiated retinoid was determined by liquid scintillation counting of an aliquot (700 μL) of the supernatant fluid or the hydroxylapatite pellet.
After correcting for non-specific binding, IC50 values were determined. […] The IC50 value was determined graphically from a log-logit plot of the data. The Ki values were determined by application of the Cheng-Prussof equation to the IC50 values, the labeled ligand concentration and the Kd of the labeled ligand.

RXRα:RAR heterodimer = biological target: T2, RXRα:RAR heterodimer (Homo sapiens, UniProt P19793); test: RXR:RAR heterodimer co-transfection assay in CV-1 cells; format: cell-based
T2 construct: expressed in transfected cells; host or cells: CV-1 cells
T2 sequence (P19793 1-462): T1 sequence (P19793 1-462)
How it was run: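 Cells co-transfected with the heterodimer were given compound at 10^−10 to 10^−5 M. Agonist efficacy was the maximum response over the dose–response curve relative to the reference agonist's maximum. Antagonist efficacy was expressed as % maximal inhibition.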

RXRα:PPARγ heterodimer = biological target: T3, RXRα:PPARγ heterodimer (Homo sapiens, UniProt P19793); test: RXR:PPARγ heterodimer co-transfection assay in CV-1 cells; format: cell-based; details: for PPARγ CV-1 (%) Synergy: maximal response in presence of 100 nM BRL49653 relative to BRL49653 alone; for RXRα:PPARγ Heterodimer Cotransfection Assay Synerg Efficacy (%): maximal response in presence of 100 nM BRL relative to response of BRL alone; for RXRα:PPARγ Heterodimer Cotransfection Assay Agonist Efficacy (%): maximal response relative to response of BRL 49653; for activity on the RXRα:PPARγ heterodimer in combination with the PPARγ ligand: synergy mode, with BRL 49653
T3 construct: expressed in transfected cells; host or cells: CV-1 cells
T3 sequence (P19793 1-462): T1 sequence (P19793 1-462)
T3 sequence (P37231 1-505 partner): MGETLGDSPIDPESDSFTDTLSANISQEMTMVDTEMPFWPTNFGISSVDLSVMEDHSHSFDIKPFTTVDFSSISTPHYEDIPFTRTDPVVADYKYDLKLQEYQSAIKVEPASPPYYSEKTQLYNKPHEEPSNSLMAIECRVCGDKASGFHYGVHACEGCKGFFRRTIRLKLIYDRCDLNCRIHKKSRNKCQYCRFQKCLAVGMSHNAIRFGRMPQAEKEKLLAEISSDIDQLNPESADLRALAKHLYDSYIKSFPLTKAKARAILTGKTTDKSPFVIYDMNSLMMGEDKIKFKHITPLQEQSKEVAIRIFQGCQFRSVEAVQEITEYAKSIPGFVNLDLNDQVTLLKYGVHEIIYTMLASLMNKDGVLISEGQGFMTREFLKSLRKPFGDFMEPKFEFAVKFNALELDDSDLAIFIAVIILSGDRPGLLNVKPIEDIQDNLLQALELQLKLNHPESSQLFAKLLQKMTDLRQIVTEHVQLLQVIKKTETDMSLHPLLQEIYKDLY
Experimental: For determination of agonist activity in the context of the RXR:RAR heterodimer or the RXR:PPARγ heterodimer, media containing compounds of the present invention in concentrations ranging from 10^−10 to 10^−5 M were added to the cells.
Compounds of the present invention were also tested for the ability to synergize with a PPARγ agonist in the context of an RXR heterodimer. […] Efficacy of the compounds of the present invention in the agonist and synergy assays was calculated as the maximum response obtained over the range of the dose response curve relative to the maximum response obtained by the reference agonist. Antagonist efficacy was determined as a function (%) of maximal inhibition.
To examine the effects of the compounds of the present invention on the transcriptional properties of the RXR:PPARγ, a heterodimer cotransfection assay as described above was employed.

db/db mouse = db/db mouse study (rodent model of Type II diabetes); details: for db/db mouse Glu. (D 14): plasma glucose, 100 mg/kg daily oral gavage; for db/db mouse Glu. (D 14) / db/db mouse Trigs. (D 14): day 14; for effect on the thyroid hormone axis / effect on triglycerides / insulin sensitizing activity / effect on glucose / insulin sensitizing activity with thyroid axis suppression and triglyceride elevations: rodent models of Type II Diabetes
Experimental: Mice (obtained from Jackson Laboratory), ZDF rats (obtained from Genetic Models Inc.) and fa/fa rats (obtained from either Charles River, or Harlan) were maintained on 12-hour light/dark cycle. […] Compounds were administered at the specified doses by oral gavage on the morning of each day of any experiment. Blood samples were obtained 3 hours after dosing from fed animals under anesthesia and collected into heparinized capillary tubes from the tail vein.

[1] = Table 3, mean of n > 3, read-out: RXRα Binding Ki
[2] = from IC50 by Cheng-Prussof equation, tritiated LGD1069, read-out: Bind RXRα Ki
[3] = CV-1, read-out: RXR:RAR CV-1 (%) Ag.
[4] = CV-1, read-out: RXRα:RAR Heterodimer Cotransfection Assay Agonist Efficacy (%)
[5] = maximal repression (100%) in presence of 10 nM TTNPB
[6] = relative to maximal repression (100%) in presence of 10 nM TTNPB
[7] = % correction relative to lean values
[8] = plasma triglycerides, % correction relative to lean values, NC = no change

| Structure (SMILES) | Ki (RXRα; [1]) [nM] | Ki (RXRα; [2]) [nM] | Emax (RXRα:RAR heterodimer; [3]) [%] | Emax (RXRα:RAR heterodimer; [4]) [%] | agonist activity on the RXR:RAR heterodimer (RXRα:RAR heterodimer; compound alone) | RXR:RAR CV-1 (%) Antag. (RXRα:RAR heterodimer; [5]) [%] | RXRα:RAR Heterodimer Cotransfection Assay Antagonist Efficacy (%) (RXRα:RAR heterodimer; [6]) | activity on the RXRα:PPARγ heterodimer, tested alone (RXRα:PPARγ heterodimer) | PPARγ CV-1 (%) Synergy (RXRα:PPARγ heterodimer) [%] | RXRα:PPARγ Heterodimer Cotransfection Assay Synerg Efficacy (%) (RXRα:PPARγ heterodimer) | RXRα:PPARγ Heterodimer Cotransfection Assay Agonist Efficacy (%) (RXRα:PPARγ heterodimer) | activity on the RXRα:PPARγ heterodimer in combination with the PPARγ ligand (RXRα:PPARγ heterodimer) | db/db mouse Glu. (D 14) (db/db mouse; [7]) [%] | db/db mouse Trigs. (D 14) (db/db mouse; [8]) [%] | effect on the thyroid hormone axis (db/db mouse) | effect on triglycerides (db/db mouse) | insulin sensitizing activity / effect on glucose (db/db mouse) | antagonist activity on the RXR:RAR heterodimer (RXRα:RAR heterodimer; antagonist assay) | insulin sensitizing activity with thyroid axis suppression and triglyceride elevations (db/db mouse) | other results |
| --- | --- | --- | --- | --- | --- | --- | --- | --- | --- | --- | --- | --- | --- | --- | --- | --- | --- | --- | --- | --- |
| COc1c(/C(C)=C/C=C/C(C)=C/C(=O)O)cc(C(C)(C)C)cc1C(C)(C)C [Compound L1] | 1.1 | 1.1 | 21 | 21 | weak agonist activity alone | 19 | 19 | both agonist and synergistic activity similar to that seen with LGD1069 and LG100268 | 166 | 166 | 59 | both agonist and synergistic activity similar to that seen with LGD1069 and LG100268 | 96 | 54 | suppress the thyroid hormone axis | raise triglycerides | efficacious insulin sensitizers | – | – | db/db mouse Trigs. (D3) (db/db mouse; plasma triglycerides, % correction relative to lean values, day 3, NC = no change): 300% |
| CCOc1c(/C(C)=C/C=C/C(C)=C/C(=O)O)cc(C(C)(C)C)cc1C(C)(C)C [Compound L2] | 13 | 13 | 6 | 6 | not active in the RXR:RAR assay | 49 | 49 | partial agonist alone | 69 | 69 | 14 | stronger activity in combination with the PPARγ ligand | 91 | 116 | suppresses thyroid hormone axis | – | – | – | – | db/db mouse T4 (D 3) (db/db mouse; total T4 as % of obese control values, day 3, NC = no change): 45% |
| CCCOc1c(/C(C)=C/C=C/C(C)=C/C(=O)O)cc(C(C)(C)C)cc1C(C)(C)C [Compound L3] | 1.1 | 1 | 5 | 5 | not active as RXR:RAR agonists | 84 | 84 | only weakly active alone | 25 | 25 | 6 | active in the presence of the PPARγ ligand | 75 | 133 | absence of detectable suppression of the thyroid hormone axis; also recorded: does not | – | – | significant RXR:RAR antagonist activity | maintain the desirable insulin sensitizing activity and eliminate or reduce both the suppression of the thyroid axis and triglyceride elevations; also recorded: maintain the desirable insulin sensitizing activity and minimize both the suppression of the thyroid axis and triglyceride elevations | RXR:RAR antagonist activity relative to L2 (RXRα:RAR heterodimer; comparison of L3 with L2): approximately twice the RXR:RAR antagonist activity as L2 |
| CCCCOc1c(/C(C)=C/C=C/C(C)=C/C(=O)O)cc(C(C)(C)C)cc1C(C)(C)C [Compound L4] | 0.9 | 1 | 2 | 2 | not active as RXR:RAR agonists | 88 | 88 | only weakly active alone | 20 | 20 | 3 | active in the presence of the PPARγ ligand | 50 | 105 | absence of detectable suppression of the thyroid hormone axis | – | – | significant RXR:RAR antagonist activity | maintain the desirable insulin sensitizing activity and eliminate or reduce both the suppression of the thyroid axis and triglyceride elevations; also recorded: maintain the desirable insulin sensitizing activity and minimize both the suppression of the thyroid axis and triglyceride elevations | – |
| CCCCCCCOc1c(/C(C)=C/C=C/C(C)=C/C(=O)O)cc(C(C)(C)C)cc1C(C)(C)C [Compound L5] | 0.6 | 0.6 | – | – | not active as RXR:RAR agonists | 68 | 68 | not active as an agonist | 6 | 6 | 4 | not active as an agonist | 0 | – | no effect | no effect | no effect | significant RXR:RAR antagonist activity | – | Emax (RXRα:RAR heterodimer; CV-1; read-out: RXR:RAR CV-1 (%) Ag.): 5%; Emax (RXRα:RAR heterodimer; CV-1; read-out: RXRα:RAR Heterodimer Cotransfection Assay Agonist Efficacy (%)): 5% |
